Experiments:
[1] = test system: bacterial isocytrate lyase (ICL); settings: literature reports; cited from earlier work
[2] = test system: Salmonella enterica serovar Typhimurium; assay: S. enterica growth in liquid minimal medium with acetate as unique carbon source; assay type: cell-based
Protocol: To directly investigate the effect of itaconic acid on bacterial replication, S. enterica was grown in liquid minimal medium supplemented with acetate as the unique carbon source and various concentrations of itaconic acid. […] S. enterica was grown in liquid medium with acetate as unique carbon source in the presence of increasing concentrations of itaconic acid (5, 10, 50, 100 mM). The optical density (OD) was measured every hour to record the bacterial growth. Curves are calculated in % relative to time 0 and represent the mean of three independent experiments.

Streptococcus pyogenes = assay: Bacterial phagocytosis and killing assay in siRNA-transfected RAW264.7 macrophages infected with S. pyogenes; assay type: cell-based; settings: streptococci compared with Salmonella
Protocol: Bacterial phagocytosis and killing assay were conducted to test the influence of the uptake of S. pyogenes by transfected (siRNA IRG1) mouse macrophages (RAW264.7 cell line) after 1 h, 2 h and 4 h of incubation.
Transfected RAW264.7 macrophages (with unspecific siRNA or IRG1 specific siRNA) were infected with Streptococcus pyogenes strain A20 at a multiplicity of infection (MOI) of 10:1 (10 bacteria per macrophage) and incubated for 1 h at 37° C., 5% CO2. Macrophages were then washed with sterile PBS, resuspended in complete medium containing […] gentamicin to kill non ingested bacteria and further incubated for 2 h at 37° C., 5% CO2. Macrophages were then disrupted with dH2O to release intracellular bacteria (this was considered time 0 h relative to gentamicin treatment) or 1, 2, 4 h later (this was considered time 1, 2, 4 h relative to gentamicin treatment) and the amount of viable intracellular bacteria was determined by plating on blood agar.
RAW264.7 cells were transfected with either siRNA specific for IRG1 or with siRNA Ctr. […] Macrophages were then disrupted with H2O to release intracellular bacteria and the amount of viable intracellular bacteria was determined by plating on blood agar. […]

[3] = Cis-aconitate decarboxylase (CAD) activity assay of purified Flag-IRG1; assay type: biochemical, Mus musculus; settings: peak activity fraction; 1 mM cis-aconitate, 30° C., 40 min, pH 7.1
Protocol: HEK293T cells were extracted 48 hours after transfection by scraping them into a lysis buffer containing 25 mM Hepes, pH 7.1 and 1× protease inhibitor cocktail (Roche). After two freeze/thaw cycles, cell extracts were incubated for 30 min on ice in the presence of DNAse I (200 U/ml extract; Roche Applied Science) and 10 mM MgSO4. The crude cell extracts were centrifuged for 5 min at 16000×g (4° C.) and pellets were resuspended in lysis buffer for SDS-PAGE analysis. Flag-IRG1 was purified from the supernatant using the Flag®M purification kit, according to the manufacturer's instructions (Sigma Aldrich). […] Protein concentration was measured by the Bradford assay using Bradford reagent (Bio-Rad).
Cis-aconitate decarboxylase activity was measured by incubating cell extracts or purified protein fractions (10 μl) at 30° C. and for 40 min in a reaction mixture containing 25 mM Hepes, pH 7.1 and 1 mM cis-aconitate in a total volume of 100 μl. […] The dry residue was derivatized and itaconic acid was quantified by GC-MS as described below. Itaconic acid concentrations were calculated by comparing the corresponding GC/MS signals obtained in samples with the one obtained after injection of known amounts of itaconic acid standards. […]
Cis-aconitate decarboxylase activity was measured in cell extracts and purification fractions. […]

Molecule | inhibition of isocitrate lyase [1] | itaconic acid concentration with significant effect on growth inhibition ([2]; 5, 10, 50, 100 mM tested, OD every hour) | bacterial growth inhibition ([2]; increasing concentrations of itaconic acid) | antimicrobial effect of itaconic acid (Streptococcus pyogenes) | CAD specific activity [3]
C=C(CC(=O)O)C(=O)O [itaconic acid] | inhibits | higher than 10 mM | dose-dependent growth inhibition | less pronounced in streptococci than in Salmonella | –
Flag-IRG1: FLAG-tagged IRG1 protein purified from HEK293T cells transfected with a pCMV6-Entry-IRG1 expression plasmid | – | – | – | – | about 40 nmol min^−1 mg protein^−1

— US20150086986A1, “METHOD TO PREDICT THE PRESENCE OF INFLAMMATION OR ITACONIC ACID, IRG1 AND/OR PROTEIN IRG1 IN A SUBJECT AND PHARMACEUTICAL COMPOSITION FOR TREATING OR PREVENTING INFLAMMATION” (priority 2011, published 2015)
